Experimental findings from US11034650B2, “Compounds useful for treating a Mannheimia haemolytica or Histophilus somni infection” (Intervet Inc., priority 2016, dated 2021) are described below.

Each structure is given as a SMILES string. ≈ marks a conversion by molar mass, not a printed value. Bounds are passed on as bounds.

One test relates to Mannheimia haemolytica MH 6357 (M7/2, reference strain, cattle infection strain). Nature of the test: MIC, broth-microdilution (CLSI VET01-A4), strain MH 6357. In kind it is cell-based. As to conditions: Mannheimia haemolytica strain MH 6357, broth-microdilution; unit assumed. In outline: (§1)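 The compound was titrated in twofold steps in microdilution trays. Absence of turbidity, checked without instruments, marked the MIC at the lowest such concentration.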
For `CC(C)(O)[C@H](NC(=O)c1ccc(C#Cc2ccc(CNCC#N)s2)cc1)C(=O)NO` [Compound 358], the MIC MH 6357 turned out to be 3.1 µg/mL (≈ 7.27 µM).
Regarding `CC(C)(C(NC(=O)c1ccc(C#Cc2ccc(CNCc3ccncc3)cc2)cc1)C(=O)NO)[N+](=O)[O-]` (stereo not shown) [Compound 278], the MIC MH 6357 turned out to be 0.4 µg/mL (≈ 0.798 µM).
On the same count and under the same terms, under `CC(C)([C@H](NC(=O)c1ccc(C#Cc2ccc(CNCc3ccco3)cc2)cc1)C(=O)NO)S(C)(=O)=O` [C.270] stands 0.8 µg/mL (≈ 1.53 µM); under `CC(C)(O)C(NC(=O)c1ccc(C#Cc2ccc(CNCC3CCCO3)cc2)cc1)C(=O)NO` (stereo not shown) [Compound 234], 6.3 µg/mL (≈ 13.5 µM).

Another test relates to Mannheimia haemolytica MH 6374 (ATCC 33396, reference strain). Nature of the test: MIC, broth-microdilution (CLSI VET01-A4), strain MH 6374. In kind it is cell-based. As to conditions: Mannheimia haemolytica strain MH 6374, broth-microdilution; unit assumed. In outline: as §1
For `CC(C)(O)[C@H](NC(=O)c1ccc(C#Cc2ccc(CNCC#N)s2)cc1)C(=O)NO` [Compound 358], the MIC MH 6374 turned out to be 1.6 µg/mL (≈ 3.75 µM).
The compound `CC(C)(C(NC(=O)c1ccc(C#Cc2ccc(CNCc3ccncc3)cc2)cc1)C(=O)NO)[N+](=O)[O-]` (stereo not shown) [Compound 278] yielded an MIC MH 6374 of 0.4 µg/mL (≈ 0.798 µM).
In turn, `CC(C)([C@H](NC(=O)c1ccc(C#Cc2ccc(CNCc3ccco3)cc2)cc1)C(=O)NO)S(C)(=O)=O` [C.270] showed an MIC MH 6374 of 0.2 µg/mL (≈ 0.382 µM).
Compound `CC(C)(O)C(NC(=O)c1ccc(C#Cc2ccc(CNCC3CCCO3)cc2)cc1)C(=O)NO` (stereo not shown) [Compound 234] came in with an MIC MH 6374 of 3.1 µg/mL (≈ 6.66 µM).

The subject of the next test is Mannheimia haemolytica MH 10720 (154, BRD field isolate). In words: MIC, broth-microdilution (CLSI VET01-A4), strain MH 10720. As to conditions: Mannheimia haemolytica strain MH 10720, broth-microdilution; unit assumed. In kind it is cell-based. In outline:
as §1
Consider `CC(C)(O)[C@H](NC(=O)c1ccc(C#Cc2ccc(CNCC#N)s2)cc1)C(=O)NO` [Compound 358], for which the MIC MH 10720 was found to be 0.8 µg/mL (≈ 1.88 µM).
On the same count and under the same terms, under `CC(C)(C(NC(=O)c1ccc(C#Cc2ccc(CNCc3ccncc3)cc2)cc1)C(=O)NO)[N+](=O)[O-]` (stereo not shown) [Compound 278] stands at most 0.1 µg/mL.
In turn, `CC(C)([C@H](NC(=O)c1ccc(C#Cc2ccc(CNCc3ccco3)cc2)cc1)C(=O)NO)S(C)(=O)=O` [C.270] showed an MIC MH 10720 of at most 0.1 µg/mL.
The same measure, in the same setting: for `CC(C)(O)C(NC(=O)c1ccc(C#Cc2ccc(CNCC3CCCO3)cc2)cc1)C(=O)NO` (stereo not shown) [Compound 234] the value was 0.4 µg/mL (≈ 0.859 µM).

For another test, the system named is Mannheimia haemolytica MH 12587 (1071, BRD field isolate, macrolide-resistance: erm+, E+). Nature of the test: MIC, broth-microdilution (CLSI VET01-A4), strain MH 12587. Type of test: cell-based. As to conditions: Mannheimia haemolytica strain MH 12587, broth-microdilution; unit assumed. In outline: as §1
For the compound `CC(C)(O)[C@H](NC(=O)c1ccc(C#Cc2ccc(CNCC#N)s2)cc1)C(=O)NO` [Compound 358], the MIC MH 12587 is 6.3 µg/mL (≈ 14.8 µM).
The compound `CC(C)(C(NC(=O)c1ccc(C#Cc2ccc(CNCc3ccncc3)cc2)cc1)C(=O)NO)[N+](=O)[O-]` (stereo not shown) [Compound 278] had an MIC MH 12587 of 0.8 µg/mL (≈ 1.6 µM).
In the case of `CC(C)([C@H](NC(=O)c1ccc(C#Cc2ccc(CNCc3ccco3)cc2)cc1)C(=O)NO)S(C)(=O)=O` [C.270], the MIC MH 12587 turned out to be 0.8 µg/mL (≈ 1.53 µM).
Same read-out and setting: for `CC(C)(O)C(NC(=O)c1ccc(C#Cc2ccc(CNCC3CCCO3)cc2)cc1)C(=O)NO` (stereo not shown) [Compound 234] the value was 6.3 µg/mL (≈ 13.5 µM).

Another test concerns Mannheimia haemolytica MH 13065 (XB0446-6003.9, BRD field isolate). In words: MIC, broth-microdilution (CLSI VET01-A4), strain MH 13065. Type of test: cell-based. As to conditions: Mannheimia haemolytica strain MH 13065, broth-microdilution; unit assumed. Put shortly: as §1
Consider `CC(C)(O)[C@H](NC(=O)c1ccc(C#Cc2ccc(CNCC#N)s2)cc1)C(=O)NO` [Compound 358], for which the MIC MH 13065 was 6.3 µg/mL (≈ 14.8 µM).
Same read-out and setting: for `CC(C)(C(NC(=O)c1ccc(C#Cc2ccc(CNCc3ccncc3)cc2)cc1)C(=O)NO)[N+](=O)[O-]` (stereo not shown) [Compound 278] the value was 0.4 µg/mL (≈ 0.798 µM).
The same measure, in the same setting: under `CC(C)([C@H](NC(=O)c1ccc(C#Cc2ccc(CNCc3ccco3)cc2)cc1)C(=O)NO)S(C)(=O)=O` [C.270] stands 0.2 µg/mL (≈ 0.382 µM).
Compound `CC(C)(O)C(NC(=O)c1ccc(C#Cc2ccc(CNCC3CCCO3)cc2)cc1)C(=O)NO` (stereo not shown) [Compound 234] came in with an MIC MH 13065 of 3.1 µg/mL (≈ 6.66 µM).

The test system of the next test is Mannheimia haemolytica MH 13093 (XB0472-6014.1, BRD field isolate). In words: MIC, broth-microdilution (CLSI VET01-A4), strain MH 13093. As to conditions: Mannheimia haemolytica strain MH 13093, broth-microdilution; unit assumed. Type of test: cell-based. In outline:
as §1
`CC(C)(O)[C@H](NC(=O)c1ccc(C#Cc2ccc(CNCC#N)s2)cc1)C(=O)NO` [Compound 358] came in with an MIC MH 13093 of 6.3 µg/mL (≈ 14.8 µM).
Still for that read-out and setting: for `CC(C)(C(NC(=O)c1ccc(C#Cc2ccc(CNCc3ccncc3)cc2)cc1)C(=O)NO)[N+](=O)[O-]` (stereo not shown) [Compound 278] the value was 0.4 µg/mL (≈ 0.798 µM); for `CC(C)([C@H](NC(=O)c1ccc(C#Cc2ccc(CNCc3ccco3)cc2)cc1)C(=O)NO)S(C)(=O)=O` [C.270], 0.4 µg/mL (≈ 0.764 µM).
For `CC(C)(O)C(NC(=O)c1ccc(C#Cc2ccc(CNCC3CCCO3)cc2)cc1)C(=O)NO` (stereo not shown) [Compound 234], the MIC MH 13093 amounted to 6.3 µg/mL (≈ 13.5 µM).

In a further test the test system is Pasteurella multocida PM 6267 (P 2225 (L386), reference strain, mouse infection strain). In words: MIC, broth-microdilution (CLSI VET01-A4), strain PM 6267. In kind it is cell-based. As to conditions: Pasteurella multocida strain PM 6267, broth-microdilution; unit assumed. Put shortly:
as §1
Compound `CC(C)(O)[C@H](NC(=O)c1ccc(C#Cc2ccc(CNCC#N)s2)cc1)C(=O)NO` [Compound 358] came in with an MIC PM 6267 of 0.8 µg/mL (≈ 1.88 µM).
`CC(C)(C(NC(=O)c1ccc(C#Cc2ccc(CNCc3ccncc3)cc2)cc1)C(=O)NO)[N+](=O)[O-]` (stereo not shown) [Compound 278] gave an MIC PM 6267 of at most 0.1 µg/mL.
Same read-out and setting: under `CC(C)([C@H](NC(=O)c1ccc(C#Cc2ccc(CNCc3ccco3)cc2)cc1)C(=O)NO)S(C)(=O)=O` [C.270] stands at most 0.1 µg/mL; under `CC(C)(O)C(NC(=O)c1ccc(C#Cc2ccc(CNCC3CCCO3)cc2)cc1)C(=O)NO` (stereo not shown) [Compound 234], at most 0.1 µg/mL.

The next test deals with Pasteurella multocida PM 6391 (ATCC 43137, reference strain). In words: MIC, broth-microdilution (CLSI VET01-A4), strain PM 6391. In kind it is cell-based. As to conditions: Pasteurella multocida strain PM 6391, broth-microdilution; unit assumed. Put shortly:
as §1
`CC(C)(O)[C@H](NC(=O)c1ccc(C#Cc2ccc(CNCC#N)s2)cc1)C(=O)NO` [Compound 358] registered an MIC PM 6391 of 1.6 µg/mL (≈ 3.75 µM).
Same read-out and setting: for `CC(C)(C(NC(=O)c1ccc(C#Cc2ccc(CNCc3ccncc3)cc2)cc1)C(=O)NO)[N+](=O)[O-]` (stereo not shown) [Compound 278] the value was at most 0.1 µg/mL; for `CC(C)([C@H](NC(=O)c1ccc(C#Cc2ccc(CNCc3ccco3)cc2)cc1)C(=O)NO)S(C)(=O)=O` [C.270], at most 0.1 µg/mL; for `CC(C)(O)C(NC(=O)c1ccc(C#Cc2ccc(CNCC3CCCO3)cc2)cc1)C(=O)NO` (stereo not shown) [Compound 234], 0.4 µg/mL (≈ 0.859 µM).

In the next test the test system is Pasteurella multocida PM 10775 (080130003051, BRD field isolate). In words: MIC, broth-microdilution (CLSI VET01-A4), strain PM 10775. Type of test: cell-based. As to conditions: Pasteurella multocida strain PM 10775, broth-microdilution; unit assumed. In outline:
as §1
As to `CC(C)(O)[C@H](NC(=O)c1ccc(C#Cc2ccc(CNCC#N)s2)cc1)C(=O)NO` [Compound 358], the MIC PM 10775 is 0.2 µg/mL (≈ 0.469 µM).
On the same count and under the same terms, under `CC(C)(C(NC(=O)c1ccc(C#Cc2ccc(CNCc3ccncc3)cc2)cc1)C(=O)NO)[N+](=O)[O-]` (stereo not shown) [Compound 278] stands at most 0.1 µg/mL.
In the case of `CC(C)([C@H](NC(=O)c1ccc(C#Cc2ccc(CNCc3ccco3)cc2)cc1)C(=O)NO)S(C)(=O)=O` [C.270], the MIC PM 10775 was at most 0.1 µg/mL.
For the compound `CC(C)(O)C(NC(=O)c1ccc(C#Cc2ccc(CNCC3CCCO3)cc2)cc1)C(=O)NO` (stereo not shown) [Compound 234], the MIC PM 10775 is at most 0.1 µg/mL.

A further test deals with Pasteurella multocida PM 12080 (IV102277-0093, BRD field isolate). In words: MIC, broth-microdilution (CLSI VET01-A4), strain PM 12080. Type of test: cell-based. As to conditions: Pasteurella multocida strain PM 12080, broth-microdilution; unit assumed. In outline: as §1
`CC(C)(O)[C@H](NC(=O)c1ccc(C#Cc2ccc(CNCC#N)s2)cc1)C(=O)NO` [Compound 358]: the MIC PM 12080 was determined as 0.8 µg/mL (≈ 1.88 µM).
Still for that read-out and setting: under `CC(C)(C(NC(=O)c1ccc(C#Cc2ccc(CNCc3ccncc3)cc2)cc1)C(=O)NO)[N+](=O)[O-]` (stereo not shown) [Compound 278] stands at most 0.1 µg/mL.
`CC(C)([C@H](NC(=O)c1ccc(C#Cc2ccc(CNCc3ccco3)cc2)cc1)C(=O)NO)S(C)(=O)=O` [C.270] came in with an MIC PM 12080 of at most 0.1 µg/mL.
The compound `CC(C)(O)C(NC(=O)c1ccc(C#Cc2ccc(CNCC3CCCO3)cc2)cc1)C(=O)NO` (stereo not shown) [Compound 234] showed an MIC PM 12080 of 0.2 µg/mL (≈ 0.43 µM).
